Source: the NIST ThermoML archive (doi:10.1016/j.jct.2018.03.013)

Assay: xn = mol fraction of the nth substance listed
Conditions: 100 kPa, Liquid; for speed of sound: Frequency=3 MHz, Linear variable-path acoustic interferometer; for mass density: Pycnometric method

C=C(C)C(=O)OCCCC [butyl 2-methyl-2-propenoate] + CC#N
Conditions | mass density [kg/m3] | speed of sound [m/s]
293.15 K, x2 = 0 | 895.19 | 1241.7
293.15 K, x2 = 0.0681 | 892.7 | 1244.4
293.15 K, x2 = 0.1359 | 889.93 | 1247.2
293.15 K, x2 = 0.1976 | 887.12 | 1249.7
293.15 K, x2 = 0.2728 | 883.27 | 1252.7
293.15 K, x2 = 0.3442 | 879.11 | 1255.5
293.15 K, x2 = 0.4143 | 874.45 | 1258.2
293.15 K, x2 = 0.4658 | 870.61 | 1260.3
293.15 K, x2 = 0.5243 | 865.72 | 1262.7
293.15 K, x2 = 0.5649 | 861.96 | 1264.5
293.15 K, x2 = 0.639 | 854.15 | 1268.1
293.15 K, x2 = 0.7112 | 845.09 | 1272.2
293.15 K, x2 = 0.7836 | 834.14 | 1277.3
293.15 K, x2 = 0.8558 | 820.72 | 1283.7
293.15 K, x2 = 0.928 | 803.86 | 1292.4
298.15 K, x2 = 0 | 890.48 | 1222.1
298.15 K, x2 = 0.0681 | 887.98 | 1224.8
298.15 K, x2 = 0.1359 | 885.2 | 1227.6
298.15 K, x2 = 0.1976 | 882.38 | 1230
298.15 K, x2 = 0.2728 | 878.51 | 1232.9
298.15 K, x2 = 0.3442 | 874.33 | 1235.5
298.15 K, x2 = 0.4143 | 869.65 | 1238.2
298.15 K, x2 = 0.4658 | 865.78 | 1240.2
298.15 K, x2 = 0.5243 | 860.86 | 1242.5
298.15 K, x2 = 0.5649 | 857.08 | 1244.2
298.15 K, x2 = 0.639 | 849.22 | 1247.7
298.15 K, x2 = 0.7112 | 840.11 | 1251.6
298.15 K, x2 = 0.7836 | 829.09 | 1256.4
298.15 K, x2 = 0.8558 | 815.6 | 1262.6
298.15 K, x2 = 0.928 | 798.66 | 1271
303.15 K, x2 = 0 | 885.78 | 1202.4
303.15 K, x2 = 0.0681 | 883.27 | 1205.3
303.15 K, x2 = 0.1359 | 880.47 | 1208.1
303.15 K, x2 = 0.1976 | 877.64 | 1210.5
303.15 K, x2 = 0.2728 | 873.75 | 1213.3
303.15 K, x2 = 0.3442 | 869.55 | 1216
303.15 K, x2 = 0.4143 | 864.84 | 1218.7
303.15 K, x2 = 0.4658 | 860.95 | 1220.7
303.15 K, x2 = 0.5243 | 856.01 | 1223.1
303.15 K, x2 = 0.5649 | 852.2 | 1224.8
303.15 K, x2 = 0.639 | 844.3 | 1228.3
303.15 K, x2 = 0.7112 | 835.14 | 1232.3
303.15 K, x2 = 0.7836 | 824.06 | 1237.2
303.15 K, x2 = 0.8558 | 810.49 | 1243.5
303.15 K, x2 = 0.928 | 793.46 | 1252
308.15 K, x2 = 0 | 881.07 | 1183
308.15 K, x2 = 0.0681 | 878.55 | 1185.9
308.15 K, x2 = 0.1359 | 875.74 | 1188.7
308.15 K, x2 = 0.1976 | 872.89 | 1191.2
308.15 K, x2 = 0.2728 | 868.98 | 1194.1
308.15 K, x2 = 0.3442 | 864.75 | 1196.8
308.15 K, x2 = 0.4143 | 860.01 | 1199.4
308.15 K, x2 = 0.4658 | 856.1 | 1201.4
308.15 K, x2 = 0.5243 | 851.13 | 1203.8
308.15 K, x2 = 0.5649 | 847.3 | 1205.6
308.15 K, x2 = 0.639 | 839.36 | 1209.1
308.15 K, x2 = 0.7112 | 830.15 | 1213.1
308.15 K, x2 = 0.7836 | 819.01 | 1218.1
308.15 K, x2 = 0.8558 | 805.37 | 1224.4
308.15 K, x2 = 0.928 | 788.25 | 1233
313.15 K, x2 = 0 | 876.35 | 1163.8
313.15 K, x2 = 0.0681 | 873.82 | 1166.7
313.15 K, x2 = 0.1359 | 871 | 1169.6
313.15 K, x2 = 0.1976 | 868.13 | 1172.1
313.15 K, x2 = 0.2728 | 864.2 | 1175
313.15 K, x2 = 0.3442 | 859.95 | 1177.7
313.15 K, x2 = 0.4143 | 855.18 | 1180.4
313.15 K, x2 = 0.4658 | 851.24 | 1182.4
313.15 K, x2 = 0.5243 | 846.24 | 1184.8
313.15 K, x2 = 0.5649 | 842.39 | 1186.6
313.15 K, x2 = 0.639 | 834.41 | 1190.2
313.15 K, x2 = 0.7112 | 825.14 | 1194.2
313.15 K, x2 = 0.7836 | 813.95 | 1199.3
313.15 K, x2 = 0.8558 | 800.24 | 1205.7
313.15 K, x2 = 0.928 | 783.04 | 1214.3
318.15 K, x2 = 0 | 871.64 | 1145.7
318.15 K, x2 = 0.0681 | 869.11 | 1148.6
318.15 K, x2 = 0.1359 | 866.27 | 1151.5
318.15 K, x2 = 0.1976 | 863.39 | 1154
318.15 K, x2 = 0.2728 | 859.43 | 1156.9
318.15 K, x2 = 0.3442 | 855.15 | 1159.6
318.15 K, x2 = 0.4143 | 850.35 | 1162.3
318.15 K, x2 = 0.4658 | 846.39 | 1164.3
318.15 K, x2 = 0.5243 | 841.36 | 1166.7
318.15 K, x2 = 0.5649 | 837.49 | 1168.4
318.15 K, x2 = 0.639 | 829.46 | 1171.9
318.15 K, x2 = 0.7112 | 820.14 | 1175.9
318.15 K, x2 = 0.7836 | 808.89 | 1180.9
318.15 K, x2 = 0.8558 | 795.11 | 1187.3
318.15 K, x2 = 0.928 | 777.83 | 1195.8
